Assay results reported in patent publication US10710978B2, “STK4 inhibitors for treatment of hematologic malignancies” (Dana-Farber Cancer Institute, Inc., priority 2015, dated 2020).
Where two headings read alike, the source gives them in different places.

Assays:
Experiment in all cases: KiNativ assay
Assay type in all cases: binding
Conditions in all cases: H929 live cell
ACK = ACK (Homo sapiens (Human), UniProt Q07912)
Method: (§1) Biochemical IC50s of the compounds of the present disclosure against various kinases were measured in a KiNativ assay. Compounds were screened in duplicate at 10 μM in H929 live cell. IC50 was measured via Mass spectroscopy (MS).

ATR = ATR (Homo sapiens (Human), UniProt Q13535)
Method: as §1

CDC2 = CDC2 (Homo sapiens (Human), UniProt P06493)
Sequence of CDC2 (P06493 whole entry): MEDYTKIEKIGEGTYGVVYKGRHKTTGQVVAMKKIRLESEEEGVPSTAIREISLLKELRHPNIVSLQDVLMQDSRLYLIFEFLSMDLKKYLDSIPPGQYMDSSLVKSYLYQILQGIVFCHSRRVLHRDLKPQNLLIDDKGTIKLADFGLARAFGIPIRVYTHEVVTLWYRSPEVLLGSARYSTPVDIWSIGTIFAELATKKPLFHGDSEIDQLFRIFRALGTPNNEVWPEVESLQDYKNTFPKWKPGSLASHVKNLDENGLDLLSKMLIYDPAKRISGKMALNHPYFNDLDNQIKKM
Method: as §1

CDK11, CDK8 = test system: CDK11, CDK8
Method: as §1

CLK2 = CLK2 (Homo sapiens (Human), UniProt P49760)
Method: as §1

Erk1 = Erk1 (Homo sapiens (Human), UniProt P27361)
Method: as §1

IKKe, TBK1 = test system: IKKe, TBK1
Method: as §1

IRAK4 = IRAK4 (Homo sapiens (Human), UniProt Q9NWZ3)
Sequence of IRAK4 (Q9NWZ3 whole entry): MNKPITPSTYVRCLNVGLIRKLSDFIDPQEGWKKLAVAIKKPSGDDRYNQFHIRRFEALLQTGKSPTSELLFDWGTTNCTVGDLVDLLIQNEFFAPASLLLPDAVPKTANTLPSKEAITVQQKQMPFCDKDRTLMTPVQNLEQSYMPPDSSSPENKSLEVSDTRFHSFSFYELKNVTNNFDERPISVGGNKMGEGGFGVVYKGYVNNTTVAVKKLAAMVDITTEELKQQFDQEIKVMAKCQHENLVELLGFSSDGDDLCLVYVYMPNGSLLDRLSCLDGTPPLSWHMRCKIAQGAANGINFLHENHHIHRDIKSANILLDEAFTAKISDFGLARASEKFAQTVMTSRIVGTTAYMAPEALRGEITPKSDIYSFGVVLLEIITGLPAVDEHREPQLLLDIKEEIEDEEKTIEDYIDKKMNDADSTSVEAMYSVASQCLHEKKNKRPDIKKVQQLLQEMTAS
Method: as §1

JAK3 domain2 = JAK3 domain2 (Homo sapiens (Human), UniProt P52333)
Method: as §1

MAPKAPK2, MAPKAPK3 = test system: MAPKAPK2, MAPKAPK3
Method: as §1

MARK2 = MARK2 (Homo sapiens (Human), UniProt Q7KZI7)
Method: as §1

MARK4 = MARK4 (Homo sapiens (Human), UniProt Q96L34)
Sequence of MARK4 (Q96L34 whole entry): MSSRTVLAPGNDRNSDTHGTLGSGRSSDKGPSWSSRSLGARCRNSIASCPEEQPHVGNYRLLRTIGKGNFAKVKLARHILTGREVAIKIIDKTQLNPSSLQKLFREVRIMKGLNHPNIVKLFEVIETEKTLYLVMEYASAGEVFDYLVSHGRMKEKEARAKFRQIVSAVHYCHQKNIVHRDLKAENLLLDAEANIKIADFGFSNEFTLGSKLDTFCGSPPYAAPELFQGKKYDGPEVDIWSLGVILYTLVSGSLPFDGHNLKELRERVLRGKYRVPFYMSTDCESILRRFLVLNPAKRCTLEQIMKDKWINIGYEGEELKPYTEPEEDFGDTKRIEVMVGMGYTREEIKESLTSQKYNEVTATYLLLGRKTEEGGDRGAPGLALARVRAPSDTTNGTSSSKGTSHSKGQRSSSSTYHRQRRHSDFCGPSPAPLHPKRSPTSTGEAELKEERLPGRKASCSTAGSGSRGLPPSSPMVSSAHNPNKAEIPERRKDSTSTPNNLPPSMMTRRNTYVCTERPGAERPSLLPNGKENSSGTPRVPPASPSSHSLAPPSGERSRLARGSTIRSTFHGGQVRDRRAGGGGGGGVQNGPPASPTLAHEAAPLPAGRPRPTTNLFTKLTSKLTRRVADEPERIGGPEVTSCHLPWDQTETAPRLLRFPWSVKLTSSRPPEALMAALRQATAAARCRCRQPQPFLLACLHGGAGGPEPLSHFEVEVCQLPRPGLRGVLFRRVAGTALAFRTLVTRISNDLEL
Method: as §1

MAST3 = MAST3 (Homo sapiens (Human), UniProt O60307)
Method: as §1

MASTL = MASTL (Homo sapiens (Human), UniProt Q96GX5)
Method: as §1

MLK3 = MLK3 (Homo sapiens (Human), UniProt Q16584)
Method: as §1

MST1, MST2 = test system: MST1, MST2
Method: as §1

MST2 = MST2 (Homo sapiens (Human), UniProt Q13188)
Method: as §1

MST3 = MST3 (Homo sapiens (Human), UniProt Q9Y6E0)
Method: as §1

NDR1 = NDR1 (Homo sapiens (Human), UniProt Q15208)
Sequence of NDR1 (Q15208 whole entry): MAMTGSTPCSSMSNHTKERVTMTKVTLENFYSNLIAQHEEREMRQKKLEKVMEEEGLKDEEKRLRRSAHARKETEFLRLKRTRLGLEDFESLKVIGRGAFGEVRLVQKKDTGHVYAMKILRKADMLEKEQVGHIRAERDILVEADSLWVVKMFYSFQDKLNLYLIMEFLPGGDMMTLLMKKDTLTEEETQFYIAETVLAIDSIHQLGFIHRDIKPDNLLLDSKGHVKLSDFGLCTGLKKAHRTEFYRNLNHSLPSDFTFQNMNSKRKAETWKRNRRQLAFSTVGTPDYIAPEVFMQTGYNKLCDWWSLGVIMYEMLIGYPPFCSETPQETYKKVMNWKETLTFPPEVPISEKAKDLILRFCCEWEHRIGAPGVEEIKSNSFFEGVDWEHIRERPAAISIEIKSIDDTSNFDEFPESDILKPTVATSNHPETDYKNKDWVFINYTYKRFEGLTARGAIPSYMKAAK
Method: as §1

NDR2 = NDR2 (Homo sapiens (Human), UniProt Q9Y2H1)
Sequence of NDR2 (Q9Y2H1 whole entry): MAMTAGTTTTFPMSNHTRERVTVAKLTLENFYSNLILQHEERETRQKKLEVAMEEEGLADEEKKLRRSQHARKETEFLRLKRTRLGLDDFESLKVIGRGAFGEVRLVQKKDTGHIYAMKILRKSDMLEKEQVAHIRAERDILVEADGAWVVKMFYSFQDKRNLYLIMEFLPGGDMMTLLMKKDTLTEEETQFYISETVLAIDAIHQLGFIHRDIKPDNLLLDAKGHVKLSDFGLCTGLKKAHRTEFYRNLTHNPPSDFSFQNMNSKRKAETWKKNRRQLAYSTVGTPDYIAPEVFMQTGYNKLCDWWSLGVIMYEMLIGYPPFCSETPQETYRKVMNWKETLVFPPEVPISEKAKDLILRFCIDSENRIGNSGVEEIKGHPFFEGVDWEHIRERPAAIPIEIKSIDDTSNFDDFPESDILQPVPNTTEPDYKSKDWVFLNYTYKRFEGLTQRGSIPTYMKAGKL
Method: as §1

NEK1 = NEK1 (Homo sapiens (Human), UniProt Q96PY6)
Method: as §1

PI4KB = PI4KB (Homo sapiens (Human), UniProt Q9UBF8)
Method: as §1

PIK3CB = PIK3CB (Homo sapiens (Human), UniProt P42338)
Sequence of PIK3CB (P42338 whole entry): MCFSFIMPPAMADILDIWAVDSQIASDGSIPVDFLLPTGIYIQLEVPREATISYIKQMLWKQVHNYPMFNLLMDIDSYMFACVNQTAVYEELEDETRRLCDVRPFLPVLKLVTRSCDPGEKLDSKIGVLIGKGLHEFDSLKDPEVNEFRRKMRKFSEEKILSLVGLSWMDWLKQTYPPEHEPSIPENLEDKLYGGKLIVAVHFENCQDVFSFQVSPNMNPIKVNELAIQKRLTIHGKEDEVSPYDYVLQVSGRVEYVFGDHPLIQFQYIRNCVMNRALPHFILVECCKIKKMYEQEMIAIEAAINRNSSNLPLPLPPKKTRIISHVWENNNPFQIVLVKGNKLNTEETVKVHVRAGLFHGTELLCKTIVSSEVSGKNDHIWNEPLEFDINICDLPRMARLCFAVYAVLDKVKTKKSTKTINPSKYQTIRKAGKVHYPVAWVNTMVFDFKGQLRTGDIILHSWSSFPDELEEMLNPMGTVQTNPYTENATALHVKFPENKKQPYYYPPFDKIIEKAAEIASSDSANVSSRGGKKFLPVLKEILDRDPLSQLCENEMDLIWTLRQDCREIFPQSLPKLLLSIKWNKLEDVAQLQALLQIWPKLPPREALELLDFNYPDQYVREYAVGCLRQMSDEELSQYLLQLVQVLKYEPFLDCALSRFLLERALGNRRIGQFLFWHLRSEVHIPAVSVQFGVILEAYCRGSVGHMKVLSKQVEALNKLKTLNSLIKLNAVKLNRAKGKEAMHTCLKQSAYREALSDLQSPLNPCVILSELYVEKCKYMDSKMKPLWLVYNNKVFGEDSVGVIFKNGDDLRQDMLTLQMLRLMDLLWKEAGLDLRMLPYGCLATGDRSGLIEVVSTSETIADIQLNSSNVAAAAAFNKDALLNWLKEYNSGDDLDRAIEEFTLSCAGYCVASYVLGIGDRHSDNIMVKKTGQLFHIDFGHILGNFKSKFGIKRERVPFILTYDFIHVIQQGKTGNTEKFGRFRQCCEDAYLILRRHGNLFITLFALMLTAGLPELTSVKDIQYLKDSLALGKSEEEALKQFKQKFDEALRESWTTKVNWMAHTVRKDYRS
Sequence of PIK3CB (P27986 whole entry partner): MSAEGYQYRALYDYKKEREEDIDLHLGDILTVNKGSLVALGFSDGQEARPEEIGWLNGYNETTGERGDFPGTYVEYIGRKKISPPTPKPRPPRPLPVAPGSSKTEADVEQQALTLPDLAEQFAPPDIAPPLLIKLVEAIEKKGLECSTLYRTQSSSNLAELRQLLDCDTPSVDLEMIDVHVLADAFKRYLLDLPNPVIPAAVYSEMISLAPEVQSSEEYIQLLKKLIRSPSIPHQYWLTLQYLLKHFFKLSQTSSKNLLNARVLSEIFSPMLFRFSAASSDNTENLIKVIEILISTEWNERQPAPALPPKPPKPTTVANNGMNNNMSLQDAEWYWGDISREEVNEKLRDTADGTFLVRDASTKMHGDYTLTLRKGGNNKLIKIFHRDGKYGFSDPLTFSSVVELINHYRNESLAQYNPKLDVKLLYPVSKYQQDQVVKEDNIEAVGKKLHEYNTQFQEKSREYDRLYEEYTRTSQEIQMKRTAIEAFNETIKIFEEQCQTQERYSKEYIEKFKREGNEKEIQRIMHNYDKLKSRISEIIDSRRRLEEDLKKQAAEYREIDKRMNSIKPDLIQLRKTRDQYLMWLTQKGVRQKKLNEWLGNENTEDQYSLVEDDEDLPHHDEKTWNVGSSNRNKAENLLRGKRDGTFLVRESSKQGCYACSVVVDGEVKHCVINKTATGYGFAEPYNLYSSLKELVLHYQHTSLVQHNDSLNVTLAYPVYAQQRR
Method: as §1

PIP4K2C = PIP4K2C (Homo sapiens (Human), UniProt Q8TBX8)
Method: as §1

PIP5K3 = PIP5K3 (Homo sapiens (Human), UniProt Q9Y2I7)
Method: as §1

PITSLRE = test system: PITSLRE
Method: as §1

PKR = PKR (Homo sapiens (Human), UniProt P19525)
Method: as §1

[1] = test system: RSK1 domain1, RSK2 domain1, RSK3 domain1
Method: as §1

RSK2 domain2 = RSK2 domain2 (Homo sapiens (Human), UniProt P51812)
Method: as §1

SLK = SLK (Homo sapiens (Human), UniProt Q9H2G2)
Method: as §1

STLK6 = STLK6 (Homo sapiens (Human), UniProt Q9C0K7)
Sequence of STLK6 (Q9C0K7 whole entry): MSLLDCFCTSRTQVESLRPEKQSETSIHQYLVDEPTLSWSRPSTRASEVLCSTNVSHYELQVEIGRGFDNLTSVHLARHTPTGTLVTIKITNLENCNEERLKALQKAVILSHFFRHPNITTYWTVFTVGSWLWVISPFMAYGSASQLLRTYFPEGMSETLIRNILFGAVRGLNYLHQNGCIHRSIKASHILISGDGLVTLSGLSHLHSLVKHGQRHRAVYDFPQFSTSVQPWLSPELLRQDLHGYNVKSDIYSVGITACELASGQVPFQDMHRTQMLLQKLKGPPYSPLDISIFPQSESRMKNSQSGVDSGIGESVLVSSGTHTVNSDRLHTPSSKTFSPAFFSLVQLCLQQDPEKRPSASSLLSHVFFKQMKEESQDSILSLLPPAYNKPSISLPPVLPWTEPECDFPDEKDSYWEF
Method: as §1

TLK2 = TLK2 (Homo sapiens (Human), UniProt Q86UE8)
Method: as §1

p38d, p38g = test system: p38d, p38g
Method: as §1

p70S6K = p70S6K (Homo sapiens (Human), UniProt P23443)
Method: as §1

[2] = range class, read-out: % inhibition

## Nc1ncc(-c2ccc(NS(=O)(=O)C3CC3)cc2OC2CCCCC2)cc1-c1ccc2c(c1)CCNC2=O [Compound I-65, N-(4-(6-amino-5-(1-oxo-1,2,3,4-tetrahydroisoquinolin-6-yl)pyridin-3-yl)-3-(cyclohexyloxy)phenyl) cyclopropanesulfonamide]
ACK; [2]
  inhibition at 10 µM: 0%
ACK; read-out: inhibition (10 μM)
  inhibition at 10 µM: 30.7%
ATR; [2]
  inhibition at 10 µM: 0%
ATR; read-out: inhibition (10 μM)
  inhibition at 10 µM: 28.1%
CDC2; [2]
  inhibition at 10 µM: 0%
CDC2; read-out: inhibition (10 μM)
  inhibition at 10 µM: -0.5%
CDK11, CDK8; 10 μM, range class
  % inhibition: 0.0%
CDK11, CDK8
  inhibition (10 μM): 31.3%
CLK2; [2]
  inhibition at 10 µM: 50 to 75%
CLK2; read-out:
  inhibition at 10 µM: 69.4%
Erk1; [2]
  inhibition at 10 µM: 0%
Erk1; read-out: inhibition (10 μM)
  inhibition at 10 µM: -30.7%
IKKe, TBK1; 10 μM, range class
  % inhibition: 75-90%
IKKe, TBK1
  inhibition (10 μM): 81.8%
IRAK4; [2]
  inhibition at 10 µM: 0%
IRAK4; read-out: inhibition (10 μM)
  inhibition at 10 µM: 32.9%
JAK3 domain2; [2]
  inhibition at 10 µM: 50 to 75%
JAK3 domain2; read-out: inhibition (10 μM)
  inhibition at 10 µM: 52.1%
MAPKAPK2, MAPKAPK3; 10 μM, range class
  % inhibition: 0.0%
MAPKAPK2, MAPKAPK3
  inhibition (10 μM): −52.2%
MARK2; [2]
  inhibition at 10 µM: 0%
MARK2; read-out: inhibition (10 μM)
  inhibition at 10 µM: -45.1%
MARK4; [2]
  inhibition at 10 µM: 0%
MARK4; read-out: inhibition (10 μM)
  inhibition at 10 µM: -1.1%
MAST3; [2]
  inhibition at 10 µM: 0%
MAST3; read-out: inhibition (10 μM)
  inhibition at 10 µM: -7.5%
MASTL; [2]
  inhibition at 10 µM: 0%
MASTL; read-out: inhibition (10 μM)
  inhibition at 10 µM: -9.6%
MLK3; [2]
  inhibition at 10 µM: 75 to 90%
MLK3; read-out: inhibition (10 μM)
  inhibition at 10 µM: 82.7%
MST1, MST2; 10 μM, range class
  % inhibition: >90%
MST1, MST2
  inhibition (10 μM): 98.7%
MST2; [2]
  inhibition at 10 µM: > 90%
MST2; read-out: inhibition (10 μM)
  inhibition at 10 µM: 97.3%
MST3; [2]
  inhibition at 10 µM: 0%
MST3; read-out: inhibition (10 μM)
  inhibition at 10 µM: 31.5%
NDR1; [2]
  inhibition at 10 µM: 0%
NDR1; read-out: inhibition (10 μM)
  inhibition at 10 µM: -14.5%
NDR2; [2]
  inhibition at 10 µM: 0%
NDR2; read-out: inhibition (10 μM)
  inhibition at 10 µM: -8.7%
NEK1; [2]
  inhibition at 10 µM: 0%
NEK1; read-out: inhibition (10 μM)
  inhibition at 10 µM: 9.3%
PI4KB; [2]
  inhibition at 10 µM: 0%
PI4KB; read-out: inhibition (10 μM)
  inhibition at 10 µM: 8.6%
PIK3CB; [2]
  inhibition at 10 µM: 0%
PIK3CB; read-out: inhibition (10 μM)
  inhibition at 10 µM: 14.6%
PIP4K2C; [2]
  inhibition at 10 µM: > 90%
PIP4K2C; read-out: inhibition (10 μM)
  inhibition at 10 µM: 90.2%
PIP5K3; [2]
  inhibition at 10 µM: > 90%
PIP5K3; read-out: inhibition (10 μM)
  inhibition at 10 µM: 91.7%
PITSLRE; 10 μM, range class
  % inhibition: 0.0%
PITSLRE
  inhibition (10 μM): −17.5%
PKR; [2]
  inhibition at 10 µM: 0%
PKR; read-out: inhibition (10 μM)
  inhibition at 10 µM: -7.6%
[1]; 10 μM, range class
  % inhibition: 50-75%
[1]
  inhibition (10 μM): 68.4%
RSK2 domain2; [2]
  inhibition at 10 µM: 0%
RSK2 domain2; read-out: inhibition (10 μM)
  inhibition at 10 µM: 7.2%
SLK; [2]
  inhibition at 10 µM: > 90%
SLK; read-out: inhibition (10 μM)
  inhibition at 10 µM: 97.8%
STLK6; [2]
  inhibition at 10 µM: 0%
STLK6; read-out: inhibition (10 μM)
  inhibition at 10 µM: -15.9%
TLK2; [2]
  inhibition at 10 µM: 0%
TLK2; read-out: inhibition (10 μM)
  inhibition at 10 µM: -3.5%
p38d, p38g; 10 μM, range class
  % inhibition: 0.0%
p38d, p38g
  inhibition (10 μM): −8.5%
p70S6K; [2]
  inhibition at 10 µM: 0%
p70S6K; read-out: inhibition (10 μM)
  inhibition at 10 µM: 11.1%

## CN(C1CC1)S(=O)(=O)c1ccc(-c2cnc(N)c(-c3ccc4c(c3)CCNC4=O)c2)c(F)c1 [Compound I-28, 4-(6-amino-5-(1-oxo-1,2,3,4-tetrahydroisoquinolin-6-yl)pyridin-3-yl)-N-cyclopropyl-3-fluoro-N-methylbenzenesulfonamide]
ACK; read-out: % inhibition (range)
  inhibition at 10 µM: 0%
ACK; read-out: inhibition (10 μM)
  inhibition at 10 µM: -18.8%
ATR; read-out: % inhibition (range)
  inhibition at 10 µM: 0%
ATR; read-out: inhibition (10 μM)
  inhibition at 10 µM: -37.5%
CDC2; read-out: % inhibition (range)
  inhibition at 10 µM: 0%
CDC2; read-out: inhibition (10 μM)
  inhibition at 10 µM: -26.5%
CDK11, CDK8; 10 μM
  % inhibition (range): 0.0%
CDK11, CDK8
  inhibition (10 μM): 4.9%
CLK2; read-out: % inhibition (range)
  inhibition at 10 µM: 35 to 50%
CLK2; read-out:
  inhibition at 10 µM: 42.7%
Erk1; read-out: % inhibition (range)
  inhibition at 10 µM: 0%
Erk1; read-out: inhibition (10 μM)
  inhibition at 10 µM: 11%
IKKe, TBK1; 10 μM
  % inhibition (range): 0.0%
IKKe, TBK1
  inhibition (10 μM): −14.8%
IRAK4; read-out: % inhibition (range)
  inhibition at 10 µM: 0%
IRAK4; read-out: inhibition (10 μM)
  inhibition at 10 µM: -0.7%
JAK3 domain2; read-out: % inhibition (range)
  inhibition at 10 µM: 0%
JAK3 domain2; read-out: inhibition (10 μM)
  inhibition at 10 µM: 15.2%
MAPKAPK2, MAPKAPK3; 10 μM
  % inhibition (range): 0.0%
MAPKAPK2, MAPKAPK3
  inhibition (10 μM): −5.0%
MARK2; read-out: % inhibition (range)
  inhibition at 10 µM: 0%
MARK2; read-out: inhibition (10 μM)
  inhibition at 10 µM: 4.6%
MARK4; read-out: % inhibition (range)
  inhibition at 10 µM: 0%
MARK4; read-out: inhibition (10 μM)
  inhibition at 10 µM: 23.1%
MAST3; read-out: % inhibition (range)
  inhibition at 10 µM: 0%
MAST3; read-out: inhibition (10 μM)
  inhibition at 10 µM: 14.2%
MASTL; read-out: % inhibition (range)
  inhibition at 10 µM: 0%
MASTL; read-out: inhibition (10 μM)
  inhibition at 10 µM: 10.2%
MLK3; read-out: % inhibition (range)
  inhibition at 10 µM: 0%
MLK3; read-out: inhibition (10 μM)
  inhibition at 10 µM: 11.7%
MST1, MST2; 10 μM
  % inhibition (range): >90%
MST1, MST2
  inhibition (10 μM): 97.5%
MST2; read-out: % inhibition (range)
  inhibition at 10 µM: 75 to 90%
MST2; read-out: inhibition (10 μM)
  inhibition at 10 µM: 89.3%
MST3; read-out: % inhibition (range)
  inhibition at 10 µM: 50 to 75%
MST3; read-out: inhibition (10 μM)
  inhibition at 10 µM: 72.3%
NDR1; read-out: % inhibition (range)
  inhibition at 10 µM: 0%
NDR1; read-out: inhibition (10 μM)
  inhibition at 10 µM: 24.6%
NDR2; read-out: % inhibition (range)
  inhibition at 10 µM: 0%
NDR2; read-out: inhibition (10 μM)
  inhibition at 10 µM: 24.2%
NEK1; read-out: % inhibition (range)
  inhibition at 10 µM: 0%
NEK1; read-out: inhibition (10 μM)
  inhibition at 10 µM: -14.1%
PI4KB; read-out: % inhibition (range)
  inhibition at 10 µM: 0%
PI4KB; read-out: inhibition (10 μM)
  inhibition at 10 µM: 16.7%
PIK3CB; read-out: % inhibition (range)
  inhibition at 10 µM: 0%
PIK3CB; read-out: inhibition (10 μM)
  inhibition at 10 µM: 1.9%
PIP4K2C; read-out: % inhibition (range)
  inhibition at 10 µM: 0%
PIP4K2C; read-out: inhibition (10 μM)
  inhibition at 10 µM: 11.8%
PIP5K3; read-out: % inhibition (range)
  inhibition at 10 µM: 75 to 90%
PIP5K3; read-out: inhibition (10 μM)
  inhibition at 10 µM: 83.4%
PITSLRE; 10 μM
  % inhibition (range): 0.0%
PITSLRE
  inhibition (10 μM): −6.3%
PKR; read-out: % inhibition (range)
  inhibition at 10 µM: 0%
PKR; read-out: inhibition (10 μM)
  inhibition at 10 µM: -0.8%
[1]; 10 μM
  % inhibition (range): 0.0%
[1]
  inhibition (10 μM): 13.3%
RSK2 domain2; read-out: % inhibition (range)
  inhibition at 10 µM: 0%
RSK2 domain2; read-out: inhibition (10 μM)
  inhibition at 10 µM: -20%
SLK; read-out: % inhibition (range)
  inhibition at 10 µM: 50 to 75%
SLK; read-out: inhibition (10 μM)
  inhibition at 10 µM: 58.9%
STLK6; read-out: % inhibition (range)
  inhibition at 10 µM: 0%
STLK6; read-out: inhibition (10 μM)
  inhibition at 10 µM: 1.4%
TLK2; read-out: % inhibition (range)
  inhibition at 10 µM: 0%
TLK2; read-out: inhibition (10 μM)
  inhibition at 10 µM: 14.2%
p38d, p38g; 10 μM
  % inhibition (range): 0.0%
p38d, p38g
  inhibition (10 μM): 7.7%
p70S6K; read-out: % inhibition (range)
  inhibition at 10 µM: 0%
p70S6K; read-out: inhibition (10 μM)
  inhibition at 10 µM: -22.7%
